Test results from US7528128B2, “Pyrrolo[2,1-C][1,4]benzodiazepine hybrids and a process for the preparation thereof” (Council of Scientific & Industrial Research, priority 2006, dated 2009).
Values after ≈ are worked out from the molar mass of the structure shown.

Key:
[1] = test system: duplex-form calf thymus DNA (CT-DNA); test: Thermal denaturation studies with CT-DNA; format: binding; conditions: for ΔTm after incubation at 37° C. for 0 h / ΔTm after incubation at 37° C. for 18 h / ΔTm after incubation at 37° C. for 36 h: [PBD]:[DNA] 1:5, CT-DNA 100 μM, ligand 20 μM; for ΔTm after incubation at 37° C. for 0 h: pH 7.00, 0 h; for ΔTm after incubation at 37° C. for 18 h: pH 7.00, 18 h; for ΔTm after incubation at 37° C. for 36 h: pH 7.00, 36 h; for course of ΔTm over 0 hr, 18 hr and 36 hr (in words): incubation at 37° C.
Experimental: Compounds were subjected to thermal denaturation studies with duplex-form calf thymus DNA (CT-DNA) using an adaptation of a reported procedure. Working solutions in aqueous buffer (10 mM NaH2PO4/Na2HPO4, 1 mM Na2EDTA, pH 7.00+0.01) containing CT-DNA (100 μm in phosphate) and the PBD (20 μm) were prepared by addition of concentrated PBD solutions in DMSO to obtain a fixed [PBD]/[DNA] molar ratio of 1:5. The DNA-PBD solutions were incubated at 37° C. for 0, 18, and 36 h prior to analysis. Samples were monitored at 260 nm using a Beckman DU-7400 spectrophotometer fitted with high performance temperature controller, and heating was applied at 1° C. min−1 in the 40-90° C. range. DNA helix coil transition temperatures (Tm) were obtained from the maxima in the (dA260)/dT derivative plots. Results are given as the mean ±standard deviation from three determinations and are corrected for the effects of DMSO co-solvent using a linear correction term. Drug-induced alterations in DNA melting behaviour are given by: ΔTm=Tm(DNA+PBD)−Tm (DNA alone), where the Tm value for the PBD-free CT-DNA is 69.0±0.01.

[2] = test system: Colo205 (colon); test: In vitro cytotoxicity, 48 h continuous drug exposure; format: cell-based, human; conditions: for Activity status in terms of IC50 value: Colo205, Colon; for cell growth by %: Colo205, relative to untreated control cells
Experimental: (§1) In vitro evaluation of cytotoxic activity. The compound 5a, 5b, 5g, 5i and 5j were evaluated for in vitro anticancer activity against nine human tumour cells derived from six cancer types (colon, prostate, oral, lung, cervix and breast cancer) as shown in Table 3. […] Compounds 5a, 5b, 5g, 5i and 5j have been evaluated for their in vitro cytotoxicity in selected human cancer cell lines of colon (Colo205), lung (Hop-62), cervix (SiHa), prostate (DU145, PC3), oral (DWD, HT1080), and breast (MCF7, Zr-75-1) origin. A protocol of 48 h continuous drug exposure has been used and an […] has been used to estimate cell viability or growth. […] Compound 5a, Colo205 cell growth by 83%, DU145 cell growth by 84%, DWD cell growth by 70%, Hop62 cell growth by 87%, HT1080 cell growth by 80%, MCF7 cell growth by 73%, PC3 cell growth by 91%, SiHa cell growth by 67%, Zr-75-1 cell growth by 76%. Compound 5b, Colo205 cell growth by 20%, DU145 cell growth by 64%, DWD cell growth by 70%, Hop62 cell growth by 78%, HT1080 cell growth by 72%, MCF7 cell growth by 69%, PC3 cell growth by 72%, SiHa cell growth by 20%, Zr-75-1 cell growth by 20%. Compound 5g, Colo205 cell growth by 50%, DU145 cell growth by 20%, DWD cell growth by 94%, Hop62 cell growth by 84%, HT1080 cell growth by 94%, MCF7 cell growth by 71%, PC3 cell growth by 86%, SiHa cell growth by 74%, Zr-75-1 cell growth by 72%. Compound 5i, DU145 cell growth by 42%, Hop62 cell growth by 60%, HT1080 cell growth by 70%, Compound 5j, Colo205 cell growth by 44%, DU145 cell growth by 57%, DWD cell growth by 65%, Hop62 cell growth by 53%, HT1080 cell growth by 71%, PC3 cell growth by 81%, SiHa cell growth by 77%.

[3] = test system: DU145 (prostate); test: as above; format: cell-based, human; conditions: for Activity status in terms of IC50 value: DU145, Prostate; for cell growth by %: DU145, relative to untreated control cells
Experimental: as §1

[4] = test system: DWD (oral); test: as above; format: cell-based, human; conditions: for cell growth by %: relative to untreated control cells
Experimental: as §1

[5] = test system: HT1080 (oral); test: as above; format: cell-based, human; conditions: for Activity status in terms of IC50 value: HT1080, Oral; for cell growth by %: HT1080, relative to untreated control cells
Experimental: as §1

[6] = test system: Hop62 (lung); test: as above; format: cell-based, human; conditions: for Activity status in terms of IC50 value: Hop62, Lung; for cell growth by %: Hop62, relative to untreated control cells
Experimental: as §1

[7] = test system: MCF7 (breast); test: as above; format: cell-based, human
Experimental: as §1

[8] = test system: PC3 (prostate); test: as above; format: cell-based, human; conditions: for cell growth by %: PC3, relative to untreated control cells
Experimental: as §1

[9] = test system: SiHa (cervix); test: as above; format: cell-based, human; conditions: for cell growth by %: relative to untreated control cells
Experimental: as §1

[10] = test system: Zr-75-1 (breast); test: as above; format: cell-based, human
Experimental: as §1

[11] = test system: selected human cancer cell lines; test: In vitro cytotoxicity in selected human cancer cell lines (overall statements); format: cell-based; conditions: Table 3
Experimental: as §1

Compound: COc1cc2c(cc1O)N=CC1CCCN1C2=O (stereo not shown) [DC-81, reference compound]
- ΔTm after incubation at 37° C. for 0 h [1]: 0.3 °C
- ΔTm after incubation at 37° C. for 18 h [1]: 0.7 °C

Compound: 7-methoxy-8-{3-[2-benzoyl-(4-chlorophenyloxy)propoxy]}-(11aS)-1,2,3,11a-tetrahydro-5H-pyrrolo[2,1-c][1,4]benzodiazepine-5-one [Compound 5a]
- Activity status in terms of IC50 value [2]: 17 µg/mL
- cell growth by % [2]: 83%
- Activity status in terms of IC50 value [3]: 16 µg/mL
- cell growth by % [3]: 84%
- Activity status in terms of IC50 value ([4]; Oral): 30 µg/mL
- cell growth by % [4]: 70%
- Activity status in terms of IC50 value [5]: 20 µg/mL
- cell growth by % [5]: 80%
- Activity status in terms of IC50 value [6]: 13 µg/mL
- cell growth by % [6]: 87%
- Activity status in terms of IC50 value ([7]; MCF7, Breast): 27 µg/mL
- cell growth by % ([7]; MCF7, relative to untreated control cells): 73%
- Activity status in terms of IC50 value ([8]; PC3, Prostate): 9 µg/mL
- cell growth by % [8]: 91%
- Activity status in terms of IC50 value ([9]; Cervix): 43 µg/mL
- cell growth by % [9]: 67%
- Activity status in terms of IC50 value ([10]; Zr-75-1, Breast): 24 µg/mL
- cell growth by % ([10]; Zr-75-1, relative to untreated control cells): 76%
- ΔTm after incubation at 37° C. for 0 h [1]: 1.4 °C
- ΔTm after incubation at 37° C. for 18 h [1]: 1.7 °C
- ΔTm after incubation at 37° C. for 36 h [1]: 2.2 °C
- course of ΔTm over 0 hr, 18 hr and 36 hr (in words) [1]: gradually increased
- cytotoxicity against some cancer cell lines (in words) [11]: promising cytotoxicity

Compound: COc1cc2c(cc1OCCCCCCOc1c(Cl)cc(Cl)cc1C(=O)c1ccccc1)N=C[C@@H]1CCCN1C2=O [Compound 5i, 7-methoxy-8-{3-[2-benzoyl-(4,6-di-chlorophenyloxy)hexyloxy]}-(11aS)-1,2,3,11a-tetrahydro-5H-pyrrolo[2,1-c][1,4]benzodiazepine-5-one]
- Activity status in terms of IC50 value [2]: >80 µg/mL
- Activity status in terms of IC50 value [3]: 58 µg/mL
- cell growth by % [3]: 42%
- Activity status in terms of IC50 value ([4]; Oral): >80 µg/mL
- Activity status in terms of IC50 value [5]: 30 µg/mL
- cell growth by % [5]: 70%
- Activity status in terms of IC50 value [6]: 40 µg/mL
- cell growth by % [6]: 60%
- Activity status in terms of IC50 value ([7]; MCF7, Breast): >80 µg/mL
- Activity status in terms of IC50 value ([8]; PC3, Prostate): >80 µg/mL
- Activity status in terms of IC50 value ([9]; Cervix): >80 µg/mL
- Activity status in terms of IC50 value ([10]; Zr-75-1, Breast): >80 µg/mL
- ΔTm after incubation at 37° C. for 0 h [1]: 1.5 °C
- ΔTm after incubation at 37° C. for 18 h [1]: 1.9 °C
- ΔTm after incubation at 37° C. for 36 h [1]: 2.6 °C
- course of ΔTm over 0 hr, 18 hr and 36 hr (in words) [1]: gradually increased

Compound: COc1cc2c(cc1OCC(=O)Nc1ccc(Cl)cc1C(=O)c1ccccc1Cl)N=C[C@@H]1CCCN1C2=O [Compound 5j, 7-Methoxy-8-{N1-[4-chloro-2-(2-chlorobenzoyl)phenyl]2-oxyacetamido}-(11aS)-1,2,3,11a-tetrahydro-5H-pyrrolo[2,1-c][1,4]benzodiazepine-5-one]
- Activity status in terms of IC50 value [2]: 56 µg/mL
- cell growth by % [2]: 44%
- Activity status in terms of IC50 value [3]: 43 µg/mL
- cell growth by % [3]: 57%
- Activity status in terms of IC50 value ([4]; Oral): 35 µg/mL
- cell growth by % [4]: 65%
- Activity status in terms of IC50 value [5]: 29 µg/mL
- cell growth by % [5]: 71%
- Activity status in terms of IC50 value [6]: 47 µg/mL
- cell growth by % [6]: 53%
- Activity status in terms of IC50 value ([7]; MCF7, Breast): 68 µg/mL
- Activity status in terms of IC50 value ([8]; PC3, Prostate): 19 µg/mL
- cell growth by % [8]: 81%
- Activity status in terms of IC50 value ([9]; Cervix): 23 µg/mL
- cell growth by % [9]: 77%
- Activity status in terms of IC50 value ([10]; Zr-75-1, Breast): >80 µg/mL
- ΔTm after incubation at 37° C. for 0 h [1]: 1.8 °C
- ΔTm after incubation at 37° C. for 18 h [1]: 2.0 °C
- ΔTm after incubation at 37° C. for 36 h [1]: 2.8 °C
- course of ΔTm over 0 hr, 18 hr and 36 hr (in words) [1]: gradually increased

Compound: COc1cccc2c1C(=O)c1c(O)c3c(c(O)c1C2=O)C[C@@](O)(C(=O)CO)C[C@@H]3O[C@H]1C[C@H](N)[C@H](O)[C@H](C)O1 [ADR, Adriamycin, reference compound]
- IC50 ([2]; Homo sapiens, COLO 205, Colo205, Colon, read-out: Activity status in terms of IC50 value): 5 µg/mL (≈ 9.2 µM)
- IC50 ([3]; Homo sapiens, DU-145, DU145, Prostate, read-out: Activity status in terms of IC50 value): 6 µg/mL (≈ 11 µM)
- IC50 ([4]; Homo sapiens, Oral, read-out: Activity status in terms of IC50 value): 2 µg/mL (≈ 3.68 µM)
- IC50 ([5]; Homo sapiens, HT-1080, HT1080, Oral, read-out: Activity status in terms of IC50 value): 4 µg/mL (≈ 7.36 µM)
- IC50 ([6]; Homo sapiens, HOP-62, Hop62, Lung, read-out: Activity status in terms of IC50 value): 5 µg/mL (≈ 9.2 µM)
- IC50 ([7]; Homo sapiens, MCF7, Breast, read-out: Activity status in terms of IC50 value): 5 µg/mL (≈ 9.2 µM)
- IC50 ([8]; Homo sapiens, PC3, Prostate, read-out: Activity status in terms of IC50 value): 5 µg/mL (≈ 9.2 µM)
- IC50 ([9]; Homo sapiens, Cervix, read-out: Activity status in terms of IC50 value): 5 µg/mL (≈ 9.2 µM)
- IC50 ([10]; Homo sapiens, Zr-75-1, Breast, read-out: Activity status in terms of IC50 value): 5 µg/mL (≈ 9.2 µM)
